Patent US20250099483A1, “THERAPEUTIC COMPOUNDS” (priority 2021, published 2025)

What was measured:
Assay type in all cases: in vivo, human (healthy male volunteers)
[1] = Phase 1 trial Part I: plasma pharmacokinetics after single ascending oral doses
Procedure: (§1) A Phase 1, randomized, double-blind, placebo-controlled clinical trial was performed to assess the safety and pharmacokinetics (PK) of Compound 1 after single, escalating, and repeated oral doses in healthy male volunteers.
(§2) The primary objective was to assess the safety of escalating single oral doses of Compound 1 compared with placebo in healthy male volunteers. The secondary objective was to measure plasma pharmacokinetic (PK) parameters of Compound 1.
(§3) 4-[(7-methoxy-2,3-dihydro-1,4-benzothiazepin-4(5H)yl)methyl]benzoic acid hemi-fumarate (Compound 1) was administered in a gastro-resistant tablet according to EXAMPLE 5. The formulation contained 20 mg, 40 mg, or 200 mg Compound 1 (based on the mass of 4-[(7-methoxy-2,3-dihydro-1,4-benzothiazepin-4(5H)yl)methyl]benzoic acid). Placebo tablet according to Example 2 was used as comparator.
In part I, participants from groups A, B, C, D, and E received single doses of 40 mg, 80 mg, 160 mg, 240 mg, or 400 mg Compound 1, respectively, or corresponding placebo. Forty subjects completed part I: 30 active (6 per cohort) and 10 placebo.
In Part I, blood samples were collected from each participant as follows: at pre-dose, then 0.25, 0.5, 1, 1.5, 2, 3, 4, 5, 6, 8, 10, 12, 16, 24, 36, 48, 60, 72, and 96 hours after dosing.
(§4) The area under the plasma concentration-time curve was calculated using a combined linear and logarithmic trapezoidal rule. The interpolation was linear in the constant and ascending parts of the plasma concentration-time profiles. The interpolation was logarithmic in the descending parts.
For Part I, to assess the dose effect on the PK of Compound 1, the mean AUClast, and Cmax for each dose were calculated and were plotted by dose.
(§5) Plasma and muscle samples were analyzed by LC-MS/MS method.

[2] = Phase 1 trial Part II: plasma pharmacokinetics after repeated once-daily oral doses over 14 days; details: for Steady-state attained at day: once daily
Procedure: as §1
(§6) The primary objective was to assess the safety of escalating repeated oral doses of Compound 1 over 14 days compared with placebo in healthy male volunteers. The secondary objective was to measure plasma pharmacokinetic (PK) parameters of Compound 1 and to assess the concentration of Compound 1 in quadriceps muscle.
as §3
In Part II, participants from groups I, J, K, and L received repeated doses of 20 mg, 60 mg, 120 mg, or 240 mg Compound 1, respectively, or corresponding placebo once daily over a period of 14 days. Forty-one subjects completed Part II: 7/7/8/7 for cohorts I, J, K, L, and twelve placebo.
In Part II, blood samples were collected from each participant as follows: Day 1:12 samples from the pre-morning dose up to 16 h (pre-dose, 0.25, 0.5, 1, 1.5, 2, 3, 4, 6, 8, 12, and 16 h), Days 2-13:12 samples at pre-doses (i.e., morning dose); Day 14:16 samples from the pre-morning dose up to 96 (D14 pre-dose, 0.25, 0.5, 1, 1.5, 2, 3, 4, 6, 8, 12, and 16 h and D15-18:1 sample before theoretical morning dosing.
as §4
For Part II, the same approach was used on AUC, (Day 14) respectively AUC24 (Day 1), and Cmax.
as §5

[3] = Phase 1 trial Part II: concentration in quadriceps muscle biopsy on Day 13; details: for Total Cpd I concentration / Unbound Cpd I concentration: quadriceps muscle, Day 13, at least 3 h post dose, median (range); for Kp: geom. mean (geom. % CV)
Procedure: The primary objective was to assess the safety of escalating repeated oral doses of Compound 1 over 14 days compared with placebo in healthy male volunteers. The secondary objective was to measure plasma pharmacokinetic (PK) parameters of Compound 1 and to assess the concentration of Compound 1 in quadriceps muscle. For Study part II (for all groups), Concentrations of Compound 1 were determined in muscle by performing muscle biopsy on quadriceps muscle on day 13, at least 3 hours after morning dose. Plasma and muscle samples were analyzed by LC-MS/MS method. Muscle biopsy was performed to assess the concentration of Compound 1 in quadriceps muscle. The biopsy was performed on Day 13 at 3 hours post dose at least. Table 10 summarizes the ratios of unbound respective total concentration at Day 13 at 3 hours post dose divided by the plasma concentration on Day 14 at 3 hours post dose.

[4] = Phase 1 trial: safety and tolerability of single and repeated oral doses
Procedure: as §1, §2, §6

COc1ccc2c(c1)CN(Cc1ccc(C(=O)O)cc1)CCS2.O=C(O)/C=C/C(=O)O [Compound 1, 4-[(7-methoxy-2,3-dihydro-1,4-benzothiazepin-4(5H)yl)methyl]benzoic acid hemifumarate]
dose proportionality of AUClast and Cmax ([1]; Part I, graphical inspections): dose proportionality | inter-individual variability across treatment groups ([1]; Part I, single oral doses): low | linearity of pharmacokinetics with dose ([1]; Part I, single oral doses): No evidence of non-linearity with the dose | tlag ([1]; after single oral administration at 20 to 400 mg, gastro-resistant tablet): less than 2 hours | absorption ([1]; single oral administration, after a lag time consistent with the gastro-resistant tablet): rapid absorption | Steady-state attained at day ([2]; 240 mg cohort): 5 | Steady-state attained at day ([2]; 20, 60, and 120 mg cohorts): 4 | inter-individual variability (Cmax and AUC24) ([2]; Part II, 20, 60, 120, and 240 mg/d): low | Steady-state attained after days of daily treatment ([2]; Part II, across cohorts 20-240 mg once daily): 3 to 7 days | dose proportionality of AUCτ resp. AUC0-24 and Cmax ([2]; Part II, graphical inspections): dose proportionality | accumulation ratios for Cmax and AUC24 ([2]; after 14-day repeated administrations of 20, 60, 120, and 240 mg/d): 1.4-1.8 | Tmax ([2]; male, human, plasma, after 14-days of repeated once daily oral administrations of 20 mg (so in the source), read-out: median Tmax): 3 to 3.5 h | linearity of pharmacokinetics with time and dose ([2]; single and repeat dose studies): No evidence of non-linearity with the time and dose | dose proportionality of median unbound and total concentrations in quadriceps muscle ([3]; Part II, 20-240 mg once daily): dose proportional | Kp at 3 h ([3]; male, human, quadriceps muscle / plasma, oral, summary, within the dose range 20-240 mg): 0.04 to 0.08 | Total Cpd I concentration ([3]; 20 mg once daily (n=7)): 171 (141-341) ng/g | Unbound Cpd I concentration ([3]; 20 mg once daily (n=7)): 22.0 (17.5-41.5) ng/g | Total Cpd I concentration ([3]; 60 mg once daily (n=7)): 489 (273-693) ng/g | Unbound Cpd I concentration ([3]; 60 mg once daily (n=7)): 80.3 (49.7-124) ng/g | Total Cpd I concentration ([3]; 120 mg once daily (n=8)): 913 (614-1207) ng/g | Unbound Cpd I concentration ([3]; 120 mg once daily (n=8)): 104 (63.2-196) ng/g | Total Cpd I concentration ([3]; 240 mg once daily (n=7)): 1480 (890-1745) ng/g | Unbound Cpd I concentration ([3]; 240 mg once daily (n=7)): 242 (196-452) ng/g | Kpu ([3]; summary, within the dose range 20-240 mg): 0.008-0.01 | Kp ([3]; total muscle concentration Day 13, 3 h post dose / plasma concentration Day 14, 3 h post dose, 20 mg once daily): 0.0808 (65.3) (ng/g)/(ng/mL) | Kp ([3]; total muscle concentration Day 13 / plasma concentration Day 14, 3 h post dose, 60 mg once daily): 0.0640 (22.6) (ng/g)/(ng/mL) | Kp ([3]; total muscle concentration Day 13 / plasma concentration Day 14, 3 h post dose, 120 mg once daily): 0.0636 (49.9) (ng/g)/(ng/mL) | Kp ([3]; total muscle concentration Day 13 / plasma concentration Day 14, 3 h post dose, 240 mg once daily): 0.0440 (30.0) (ng/g)/(ng/mL) | tolerability ([4]; at the doses and dose regimens tested): well tolerated | serious adverse events ([4]; single doses and 14-day repeated doses tested): No serious adverse events were reported
